Reference: patent US6171786A, “Methods for preventing multidrug resistance in cancer cells” (priority 1996, dated 2001)
“Also recorded” adds a separate entry of the source.

Key:
MDR1 expression [1] = experiment: Inhibition of cytotoxic drug-induced MDR1 expression by cytoplasmic calcium antagonists and calmodulin inhibitors; type: cell-based, human; details: H9; 200 μM TMB-8
MDR1 expression [2] = experiment: Inhibition of AraC-induced MDR1 expression by phospholipase C inhibitors (RT-PCR); type: cell-based, human; details: up to 100 μg/mL D609
Protocol: The inhibitor was added 45 min. prior to the addition of Ara C. Negative control cultures were incubated as above without the addition of either AraC or U73122.
The specificity of phospholipase C-targeted inhibition of MDR1 induction by cytotoxic drugs was determined in a comparative experiment using a known inhibitor of […] phospholipase C (PC-PLC).

PC-PLC = details: Wiegmann et al., 1994; cited from earlier work
MDR1 expression [3] = experiment: Inhibition of cytotoxic drug-induced MDR1 expression by protein kinase inhibitors (cDNA-PCR); details: Iso-H7; H-9 cells
protein kinases = details: Pelosin et al., 1990; cited from earlier work
[4] = clinical trials; Berdel et al., 1988; cited from earlier work
PKC = details: in words; cited from earlier work
tumor = details: nude mice, i.p. 20 mg/kg; Grunicke et al.; cited from earlier work
MDR1 expression [5] = details: cited from earlier work
[6] = system: hormone-refractory prostate cancer; details: continuous infusion, peak of 300 μg/mL at end of 14 days; cited from earlier work

With “8-(dimethylamino)octyl-3,4,5-trimethoxybenzoate hydrochloride [TMB-8]” the “inhibition of AraC-induced MDR1 gene expression” value (MDR1 expression [1]) was “completely abrogate the ability of AraC to induce MDR1 gene expression”.
In the case of `S=C(S)OC1CC2CC1C1CCCC21` (stereo not shown) [D609, tricyclodecan-9-yl-xanthogenate potassium], the “inhibition of AraC-induced expression of MDR1” value (MDR1 expression [2]) is given as “without an effect; also recorded: incapable of inhibiting AraC-induced expression of MDR1” and the “concentration known to inhibit PC-PLC” value (PC-PLC) is given as 100 µg/mL.
In the case of `CC1CN(S(=O)(=O)c2cccc3cnccc23)CCN1` (stereo not shown) [Iso-H7], the “inhibition of Ara-C induced MDR1 expression” value (MDR1 expression [3]) is listed as “No significant inhibition” and the “weaker effect on protein kinases than H7” value (protein kinases) is listed as 10 fold.
For `CCCCCCCCCCCCCCCCSCC(COC)COP(=O)([O-])OCC[N+](C)(C)C` (stereo not shown) [ilmofosine], the “MTD, oral administration” value [4] is given as 200 mg/day.
In the case of `O=c1c(O)c(-c2ccc(O)c(O)c2)oc2cc(O)cc(O)c12` [quercetin], the PKC inhibition (PKC) is given as “inhibition of PKC activity”, the “effect on anti-tumor effect of cisplatin” value (tumor) is given as “potentiate the anti-tumor effect of cisplatin” and the “effect on arsenite-induced increase in MDR1 expression” value (MDR1 expression [5]) is given as “prevent an increase in MDR1 expression”.
For `Cc1ccc(C(=O)Nc2ccc(S(=O)(=O)O)c3cc(S(=O)(=O)O)cc(S(=O)(=O)O)c23)cc1NC(=O)c1cccc(NC(=O)Nc2cccc(C(=O)Nc3cc(C(=O)Nc4ccc(S(=O)(=O)O)c5cc(S(=O)(=O)O)cc(S(=O)(=O)O)c45)ccc3C)c2)c1` [suramin], the “activity in hormone-refractory prostate cancer” value [6] is listed as “has shown activity in hormone-refractory prostate cancer”.
